Test results as given in patent US6897019B1, “Methods for treating and preventing insulin resistance and related disorders” (priority 1998, dated 2005).
Entries after “also recorded” stand apart in the source; their conditions may differ.

Legend:
[1] = test system: 3T3-L1 adipocytes; assay: Lipolysis (glycerol in culture medium) of 3T3-L1 adipocytes with or without TNF-α; assay type: cell-based, Mouse; settings: for increase in glycerol accumulation versus untreated controls: last 24 hours of 5-day treatment; for reduction of the increase in glycerol release associated with TNF-α: then 24 hours TNF-α plus BRL 1 μM; for blocked share of the increase in glycerol release due to TNF-α: BRL 10 μM or PGJ2 15 μM, last 24 hours
Method: 3T3-L1 adipocytes used in this example were obtained from 3T3-L1 fibroblasts as follows. 3T3-L1 fibroblasts (ATCC Deposit NO. CL-173, described in U.S. Pat. No. 4,003,789) were cultured in Dulbecco's Modified Eagle's Medium (DMEM) containing 10% bovine calf serum, and induced to differentiate into adipocytes using standard protocols, as described, e.g., in Kohanski et al. (1996) J. Biol. Chem. 261:12272. Adipocytes were used 10-15 days after the differentiation protocol was initiated.
(§1) Differentiated 3T3-L1 adipocytes cultured in 12 well plates were incubated overnight in DMEM+0.5% BSA in the absence of serum. The following morning, the cells were incubated in the presence or absence of 2 mM or 20 mM sodium salicylate (NaSal) and treated with recombinant murine TNF-α (m TNF-α; Genzyme; Cambridge, Mass.) with or without 17 μM 15-deoxy-^12,14-PGJ2 (“PGJ2”; Cayman Chemical; Ann Arbor, Mich.) or 10 μM BRL 49653 (“BRL”; Smith Kine Beecham (Hamish Ross) (King of Prussia, Pa.)) for 24 hours. The glycerol content in the culture medium was determined using a colorimetric assay (GPO-Trinder, Sigma, St Louis, […].). Protein content was determined using the BCA (bicinchonic acid) protein assay (Pierce, Rockford, Ill.). The results are indicated as nmol glycerol per mg protein.
Accordingly, 3T3-L1 adipocytes were treated with BRL at 10 μM, 1 μM or 1 nM and TNF-α as described above, and the amount of glycerol was determined after 24 hours.
3T3-L1 adipocytes were treated with TNF-α (2 or 10 ng/ml), TNF-α plus BRL at 10 μM, TNF-α plus PGJ2 at 15 μM, or BRL or PGJ2 alone for 5 days. The media was replaced everyday and collected on day 5 to measure accumulation of glycerol.
[…] The glycerol content in the culture medium was determined as described above.
3T3-L1 adipocytes prepared as described in Example 1 were preincubated with various amounts (0-50 μM) of the p38 kinase inhibitor SB203580 and then treated with 10 ng/ml TNF-α for 24 hours and the amount of glycerol in the culture medium determined as described above. […]

[2] = test system: human adipocytes; assay: TNF-α induced lipolysis in primary cultures of human adipocytes; assay type: cell-based; settings: PD98059 72 hours pretreatment, then 24 hours 100 ng/ml human TNF-α
Method: Similar results were also obtained using primary cultures of human adipocytes. Primary cultures of human adipocytes, obtained from Zen-Bio were pretreated for 72 hours with PD98059 and then for 24 hours with 100 ng/ml of human TNF-α.

[3] = test system: ERK1/2; assay: ERK 1/2 kinase assay (MBP substrate) on extracts of treated 3T3-L1 adipocytes; assay type: cell-based, Mouse
Method: In this example, 3T3-L1 cells were treated as described in Example 2, and cell extracts were used in an ERK 1/2 kinase assay, using MBP (myelin basic protein) as a substrate. The assay used is described in Boulton et al. (1991) Cell Reg. 2: 357.
(§2) 3T3-L1 adipocytes prepared as described in Example 1 were pretreated for 3 hours with or without 20 mM NaSal or 100 μM PD98059 and then treated for 15 minutes with or without 10 ng/ml mTNF-α and with or without 10 μM BRL. Cell extracts were then prepared and used in ERK 1/2 kinase and JNK-1 kinase assays, as described above.
(§3) 3T3-L1 cells were pretreated for 3 days with 17 μM of PGJ2 and then for 15 minutes with 10 ng/ml TNF-α. The amount of phosphorylated (thus activated) JNK-1, ERK1/2, and p38 was determined by Western blot using an antibody specifically recognizing phosphorylated forms of the proteins. As a control, the total amount of JNK-1, ERK1/2 and p38 protein was determined by Western blot using an antibody recognizing the phosphorylated and non phosphorylated forms of the protein. The activity of ERK1/2 and JNK kinases was also determined in a kinase assay using MBP and a portion of c-jun, respectively, as substrate.

[4] = test system: p42/1p44 MAP kinases; settings: FS4 fibroblasts; Schwenger et al. 1996; cited from earlier work
[5] = test system: JNK-1; assay: JNK-1 kinase assay (c-jun substrate) on extracts of treated 3T3-L1 adipocytes; assay type: cell-based, Mouse
Method: 3T3-L1 adipocytes were pretreated for 3 hours with or without 20 mM NaSal, with or without 100 μM MAP kinase kinase (MEK) inhibitor PD98059 (Biomol; Cat. No. EI-360) and then for 15 minutes with 10 ng/ml mTNF-α. JNK-1 kinase assays were then performed with extracts of each of these cell cultures on an N-terminal portion of c-jun, as described in Derjarde et al. (1994) Cell 76: 1025.
as §2, §3

[6] = test system: JNK; settings: FS4 fibroblasts; Schwenger et al. 1997; cited from earlier work
[7] = Ehrman et al. 1997; cited from earlier work
[8] = test system: HSL; assay: Western blot of HSL protein in 3T3-L1 adipocytes; assay type: cell-based, Mouse; settings: TNF-α 10 ng/ml, 24 hours
Method: (§4) 3T3-L1 adipocytes were treated with TNF-α at 10 ng/ml, TNF-α plus BRL (10 μM), or BRL alone for 24 hours, following which cell lysates were collected and analyzed by Western blotting using antibodies against HSL and perilipin A proteins. Perilipin antibodies were generated by immunization of rabbits with a peptide identical to amino acids 9-23 of the rat perilipin protein (Greenberg et al. (1993) PNAS 90:12035). Antibodies to HSL were prepared by injecting a peptide based upon the rat HSL sequence (GeneBank) (KDLSFKGNSPEPSDSPEMC; SEQ ID NO: 1) into rabbits. Antibodies were subsequently affinity purified and used for Western blotting at a dilution of 1:1500. Western blotting was performed as follows: adipocytes are briefly rinsed with 1 ml of phosphate saline buffer (PBS, pH 7.4). Proteins were extracted by adding 200 μl of lysis buffer containing 50 mM Hepes, pH 7.4, 100 mM Nacl, 2 mM EDTA, 5% SDS, 0.1 mM Na3V) 4 , 50 mM NaF, 1 mM benzamidine, 100 μM AEBSF, adn 10 μg/ml aprotinin. Equivalent amounts of protein were separated by 10% SDS-PAGE, electrophoretically transferred to nitrocellulose membranes, incubated with primary antibody and subsequentely with donkey anti-rabbit IgG conducaged with horseradish peroxidase. Proteins were detected with enhanced chemiluminescence (ECL) system (Amersham).

[9] = test system: perilipin A; assay: Western blot of perilipin A protein in 3T3-L1 adipocytes; assay type: cell-based, Mouse; settings: TNF-α 10 ng/ml, 24 hours
Method: as §4, with “(Amersham). […]” for “(Amersham).”

[10] = test system: 3T3-L1 adipocytes; assay: TNF-α induced FFA release from 3T3-L1 adipocytes (NEFA-C colorimetric kit); assay type: cell-based, Mouse; settings: 24 hours
Method: as §1
In this example, cells were treated for 24 hours as described above, and FFA levels in the culture medium were determined using a colorimetric kit (NEFA-C, WAKO Pure Chemicals, Osaka, Japan).

[11] = test system: ERK1/2; assay: Western blot of phosphorylated ERK1/2 in 3T3-L1 cells; assay type: cell-based, Mouse; settings: 3 days 17 μM PGJ2, then 15 minutes 10 ng/ml TNF-α
Method: as §3

[12] = test system: p38; assay: Western blot of phosphorylated p38 in 3T3-L1 cells; assay type: cell-based, Mouse; settings: 3 days 17 μM PGJ2, then 15 minutes 10 ng/ml TNF-α
Method: as §3

[13] = test system: 3T3-L1 adipocytes; assay: Catecholamine (isoproterenol)-induced glycerol release from 3T3-L1 adipocytes; assay type: cell-based, Mouse; settings: BRL or PGJ2
[14] = test system: JNK-1; assay: Western blot of phosphorylated JNK-1 in 3T3-L1 cells; assay type: cell-based, Mouse; settings: 3 days 17 μM PGJ2, then 15 minutes 10 ng/ml TNF-α
Method: as §3

[15] = PD98059, pretreatment for 3 hours
[16] = 3 hours pretreatment with 20 mM NaSal or 100 μM PD98059, then 15 minutes 10 ng/ml TNF-α
[17] = 3 days 17 μM PGJ2, then 15 minutes 10 ng/ml TNF-α

Compound: C[S+]([O-])c1ccc(-c2nc(-c3ccncc3)c(-c3ccc(F)cc3)[nH]2)cc1 (stereo not shown) [SB203580]
- release of glycerol from the adipocytes ([1]; SB203580 0-50 μM preincubation, then 10 ng/ml TNF-α 24 hours): increases the release of glycerol
- concentration up to which glycerol release is proportional to the amount added ([1]; SB203580, 10 ng/ml TNF-α 24 hours): ≤ 20 µM

Compound: COc1cccc(-c2cc(=O)c3ccccc3o2)c1N [PD98059]
- TNF-α induced lipolysis in human cells [2]: reduced
- decrease of TNF-α induced lipolysis, factor ([1]; 100 μM PD98059, 24 hours pretreatment, then TNF-α 24 hours): less than 2 factor
- reduction of TNF-α induced lipolysis [1, 15]: about 76%
- reduction of TNF-α induced lipolysis, factor [1, 15]: about 3 factor
- increase of MBP phosphorylation in the presence of TNF-α and inhibitor, factor ([3]; 100 μM PD98059 3 hours, then 15 minutes 10 ng/ml TNF-α): less than two
- inhibition of MAP kinase activation ([3]; 100 μM PD98059 (Example 6, FIG. 6)): at least 90%
- TNF-α induced ERK1/2 activation (kinase activity) [3, 16]: inhibited

Compound: O=C([O-])c1ccccc1O.[Na+] [NaSal, sodium salicylate]
- inhibition of TNF-induced activation of p42/1p44 MAP kinases [4]: capable of inhibiting
- TNF-α induced JNK-1 activation (kinase activity) [5, 16]: significantly reduced; also recorded: decreases
- ability of TNF-α to increase lipolysis ([1]; 2 mM NaSal): partially reduced
- inhibition of glycerol production, factor ([1]; 2 mM NaSal, induced by 10 ng/ml TNF-α, 24 hours): ~2 factor
- ability of TNF-α to increase lipolysis ([1]; 20 mM NaSal): completely blocked
- inhibition of TNF-α induced lipolysis ([1]; 2 or 20 mM NaSal, TNF-α 2 ng/ml (Panel A) or 20 ng/ml (Panel B), 24 hours): significantly inhibited
- inhibition of glycerol production, factor ([1]; induced by 2 ng/ml TNF-α, NaSal 2 or 20 mM, 24 hours): 3-4 factor
- inhibition of ERK1/2 activation ([3]; 20 mM NaSal 3 hours, then 15 minutes 10 ng/ml TNF-α): about two
- inhibition of TNF-induced activation of JNK [6]: capable of inhibiting

Compound: Cc1c(C)c2c(c(C)c1O)CCC(C)(COc1ccc(CC3SC(=O)NC3=O)cc1)O2 (stereo not shown) [troglitazone, 5-[[4-[(3,4-dihydro-6-hydroxy-2,5,7,8-tetramethyl-2H-1-benzopyran-2-yl)methoxy]phenyl]methyl]-2,4-thiazolidinedione]
- efficacy in PCOS [7]: effective

Compound: TNF-α
- HSL protein expression versus untreated controls [8]: slightly decreased
- expression of perilipin A protein versus untreated controls [9]: markedly decreased
- increase in glycerol accumulation versus untreated controls ([1]; 2 ng/ml TNF-α): ~10 fold
- increase in glycerol accumulation versus untreated controls ([1]; 10 ng/ml TNF-α): ~13 fold
- increase in phosphorylation of the MBP substrate (ERK1/2 activation) ([3]; 10 ng/ml TNF-α, 15 minutes): seven

Compound: CN(CCOc1ccc(CC2SC(=O)NC2=O)cc1)c1ccccn1 (stereo not shown) [BRL, rosiglitazone]
- reduction of the increase in glycerol release associated with TNF-α ([1]; 24 hour pretreatment with TNF-α 2 ng/ml): about 65%
- reduction of the increase in glycerol release associated with TNF-α ([1]; 24 hour pretreatment with TNF-α 10 ng/ml): about 50%
- inhibition of basal lipolysis ([1]; 72 hour pretreatment with BRL, no TNF-α): approximately 30%
- blocked share of the increase in glycerol release due to TNF-α ([1]; 5 days, TNF-α 2 or 10 ng/ml): about 100%
- inhibition of TNF-α induced lipolysis ([1]; BRL, Example 6 (72 hour pretreatment context)): > 90%
- earliest time point at which the effect of TNF-α on glycerol release began to reverse ([1]; after addition of BRL to TNF-α pretreated cells): 6 h
- reduction in activation of ERK, factor ([3]; 72 hour pretreatment with 5 μM BRL, then TNF-α 10 ng/ml 15 minutes in the presence of BRL): about 2.5 factor
- effect on FFA release ([10]; BRL alone, no TNF-α): no effect
- reduction of TNF-α induced FFA release ([10]; BRL, 10 ng/ml TNF-α): about 90%

Compound: CCCCC/C=C/C=C1/C(=O)C=C[C@@H]1C/C=C\CCCC(=O)O [PGJ2, 15-deoxy-^12,14-PGJ2]
- phosphorylation of ERK1/2 [11]: significantly reduces
- TNF-α induced increase in JNK-1 kinase activity [5, 17]: to a lesser extent
- phosphorylation of p38 [12]: significantly reduces
- block of isoproterenol-induced glycerol release [13]: neither BRL nor PGJ2 was able to block
- inhibition of TNF-α induced lipolysis ([1]; 10 μM BRL or 17 μM PGJ2, TNF-α 2 or 10 ng/ml, 24 hours): significantly inhibited; also recorded: inhibit
- blocked share of the increase in glycerol release due to TNF-α ([1]; 5 days, TNF-α 2 or 10 ng/ml): about 100%
- glycerol accumulation versus control (untreated) cells ([1]; BRL or PGJ2 alone, 5 days): not different from levels measured in control
- further reduction of lipolysis when added to NaSal ([1]; added to cells incubated with 20 mM NaSal, TNF-α, 24 hours): did not further reduce lipolysis
- TNF-α induced increase in ERK1/2 kinase activity [3, 17]: significantly inhibits
- phosphorylation of JNK-1 [14]: significantly reduces
